Data: patent publication US6737383B1, “Herbicidal oxadiazolidines” (priority 1999, dated 2004)

Experiments:
[1] = tested on: surinam grass; assay: Test B pre/postemergence surinam grass; type: in vivo, Brachiaria decumbens; details: for Plant response rating, B. signalgrass: Postemergence; for B. signalgrass plant response rating: Preemergence
Procedure, shortened: (§1)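 Response is a visual 0-to-10 score relative to untreated plants, where 0 means no effect and 10 means complete control, taken twelve to sixteen days after application. Treatments went onto soil at planting and onto foliage of 1- to 4-leaf plants, using a surfactant-containing non-phytotoxic solvent.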

[2] = tested on: giant foxtail; assay: Test B pre/postemergence giant foxtail; type: in vivo, Setaria faberii
Procedure, shortened: as §1

[3] = tested on: morningglory; assay: Test B pre/postemergence morningglory; type: in vivo, Ipomoea hederacea
Procedure, shortened: as §1

[4] = tested on: bamyardgrass; assay: Test B flood test barnyardgrass; type: in vivo, Echinochloa crus-galli
Procedure, shortened: (§2)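 Flood test on plants grown to the 2-leaf stage; treated plants kept in greenhouse twelve to sixteen days, then visually rated against controls on a 0 (no effect) to 10 (complete control) scale.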

[5] = tested on: rice; assay: Test B flood test rice; type: in vivo, Oryza sativa
Procedure, shortened: as §2

[6] = tested on: corn; assay: Test B pre/postemergence corn; type: in vivo, Zea mays
Procedure, shortened: as §1

[7] = tested on: pigweed; assay: Test B pre/postemergence pigweed; type: in vivo, Amaranthus retroflexus
Procedure, shortened: as §1

[8] = tested on: blackgrass; assay: Test B pre/postemergence blackgrass; type: in vivo, Alopecurus myosuroides
Procedure, shortened: as §1

[9] = tested on: purple nutsedge; assay: Test B pre/postemergence purple nutsedge; type: in vivo, Cyperus rotundus
Procedure, shortened: as §1

[10] = tested on: wild oat; assay: Test B pre/postemergence wild oat; type: in vivo, Avena fatua
Procedure, shortened: as §1

[11] = tested on: crabgrass; assay: Test B pre/postemergence crabgrass; type: in vivo, Digitaria sanguinalis
Procedure, shortened: as §1

[12] = tested on: sugar beet; assay: Test B pre/postemergence sugar beet; type: in vivo, Beta vulgaris
Procedure, shortened: as §1

[13] = tested on: velvetleaf; assay: Test B pre/postemergence velvetleaf; type: in vivo, Abutilon theophrasti
Procedure, shortened: as §1

[14] = tested on: cocklebur; assay: Test B pre/postemergence cocklebur; type: in vivo, Xanthium strumarium
Procedure, shortened: as §1

[15] = tested on: wheat; assay: Test B pre/postemergence wheat; type: in vivo, Triticum aestivum
Procedure, shortened: as §1

[16] = tested on: duck salad; assay: Test B flood test duck salad; type: in vivo, Heteranthera limosa
Procedure, shortened: as §2

[17] = tested on: smallflower flatsedge; assay: Test B flood test smallflower flatsedge; type: in vivo, Cyperus difformis
Procedure, shortened: as §2

[18] = tested on: rape; assay: Test B pre/postemergence rape; type: in vivo, Brassica napus
Procedure, shortened: as §1

[19] = tested on: soybean; assay: Test B pre/postemergence soybean; type: in vivo, Glycine max
Procedure, shortened: as §1

[20] = Rate 125 g/ha, scale of 0 to 10 where 0 is no effect and 10 is complete control
[21] = Rate 500 g/ha, scale of 0 to 10 where 0 is no effect and 10 is complete control
[22] = Postemergence, Rate 62 g/ha, scale 0 to 10, 0 is no effect, 10 is complete control
[23] = Postemergence, Rate 125 g/ha, scale of 0 to 10 where 0 is no effect and 10 is complete control
[24] = Postemergence, Rate 250 g/ha, scale of 0 to 10, 0 is no effect, 10 is complete control
[25] = Postemergence, Rate 500 g/ha, scale of 0 to 10 where 0 is no effect and 10 is complete control
[26] = Preemergence, Rate 62 g/ha, scale 0 to 10 (0 no effect, 10 complete control)
[27] = Preemergence, Rate 125 g/ha, scale of 0 to 10 where 0 is no effect and 10 is complete control
[28] = Preemergence, Rate 500 g/ha, scale of 0 to 10 where 0 is no effect and 10 is complete control
[29] = Rate 62 g/ha, flood test species, Pre-emergence, visual evaluation after twelve to sixteen days
[30] = Rate 125 g/ha, under heading Pre-emergence, flood test species, visual evaluation after twelve to sixteen days
[31] = Rate 250 g/ha, Pre-emergence (flood test species), scale 0 to 10, 0 is no effect, 10 is complete control
[32] = Rate 500 g/ha, Pre-emergence section of Table B, 0 to 10 scale (0 no effect, 10 complete control)

SMILES: C=C(Cl)Cn1c(=O)on(C(=O)N(c2ccccc2)C(C)C)c1=O [Compound 608]
- Plant response rating, B. signalgrass ([1]; Rate 62 g/ha, scale 0 to 10, 0 is no effect, 10 is complete control): 3
- Plant response rating, B. signalgrass [1, 20]: 10
- Plant response rating, B. signalgrass [1, 21]: 10
- B. signalgrass plant response rating ([1]; Rate 62 g/ha, scale 0 to 10 (0 no effect, 10 complete control)): 1
- B. signalgrass plant response rating [1, 20]: 10
- B. signalgrass plant response rating [1, 21]: 10
- Plant response rating, Giant foxtail [2, 22]: 5
- Plant response rating, Giant foxtail [2, 23]: 7
- Giant foxtail plant response rating [2, 24]: 7
- Plant response rating, Giant foxtail [2, 25]: 9
- Giant foxtail plant response rating [2, 26]: 9
- Giant foxtail plant response rating [2, 27]: 10
- Plant response rating, Giant foxtail [2, 28]: 10
- Plant response rating, Morningglory [3, 22]: 0
- Plant response rating, Morningglory [3, 23]: 7
- Morningglory plant response rating [3, 24]: 8
- Plant response rating, Morningglory [3, 25]: 10
- Morningglory plant response rating [3, 26]: 0
- Morningglory plant response rating [3, 27]: 0
- Plant response rating, Morningglory [3, 28]: 4
- Plant response rating, Barnyardgrass (0 to 10 scale, 0 is no effect, 10 is complete control) [4, 29]: 0
- Barnyardgrass plant response rating (0 to 10 scale, 0 is no effect, 10 is complete control) [4, 30]: 0
- Barnyardgrass plant response rating [4, 31]: 0
- Barnyardgrass plant response rating [4, 32]: 0
- Plant response rating, Rice (0 to 10 scale, 0 is no effect, 10 is complete control) [5, 29]: 0
- Rice plant response rating (0 to 10 scale, 0 is no effect, 10 is complete control) [5, 30]: 0
- Rice plant response rating [5, 31]: 0
- Rice plant response rating [5, 32]: 0
- Plant response rating, Corn [6, 22]: 0
- Plant response rating, Corn [6, 23]: 0
- Corn plant response rating [6, 24]: 0
- Plant response rating, Corn [6, 25]: 0
- Corn plant response rating [6, 26]: 0
- Corn plant response rating [6, 27]: 0
- Corn plant response rating (0 to 10 scale) ([6]; Preemergence, Rate 250 g/ha): 0
- Plant response rating, Corn [6, 28]: 1
- Plant response rating, Redroot pigweed [7, 22]: 3
- Plant response rating, Redroot pigweed [7, 23]: 5
- Redroot pigweed plant response rating [7, 24]: 7
- Plant response rating, Redroot pigweed [7, 25]: 8
- Redroot pigweed plant response rating [7, 26]: 5
- Redroot pigweed plant response rating [7, 27]: 5
- Plant response rating, Redroot pigweed [7, 28]: 7
- Plant response rating, Blackgrass [8, 22]: 4
- Plant response rating, Blackgrass [8, 23]: 6
- Blackgrass plant response rating [8, 24]: 8
- Plant response rating, Blackgrass [8, 25]: 9
- Blackgrass plant response rating [8, 26]: 2
- Blackgrass plant response rating [8, 27]: 5
- Blackgrass plant response rating (0 to 10 scale) ([8]; Preemergence, Rate 250 g/ha): 7
- Blackgrass plant response rating [8, 28]: 9
- Plant response rating, Nutsedge [9, 22]: 0
- Plant response rating, Nutsedge [9, 23]: 0
- Nutsedge plant response rating [9, 24]: 0
- Nutsedge plant response rating [9, 27]: 0
- Plant response rating, Nutsedge [9, 28]: 0
- Plant response rating, Wild oats [10, 22]: 3
- Plant response rating, Wild oats [10, 23]: 4
- Wild oats plant response rating [10, 24]: 5
- Plant response rating, Wild oats [10, 25]: 6
- Wild oats plant response rating [10, 26]: 0
- Wild oats plant response rating [10, 27]: 3
- Plant response rating, Wild oats [10, 28]: 6
- Plant response rating, Crabgrass [11, 22]: 3
- Plant response rating, Crabgrass [11, 23]: 3
- Crabgrass plant response rating [11, 24]: 7
- Plant response rating, Crabgrass [11, 25]: 7
- Crabgrass plant response rating [11, 26]: 7
- Crabgrass plant response rating [11, 27]: 9
- Plant response rating, Crabgrass [11, 28]: 10
- Plant response rating, Sugarbeets [12, 22]: 0
- Plant response rating, Sugarbeets [12, 23]: 5
- Sugarbeets plant response rating [12, 24]: 5
- Plant response rating, Sugarbeets [12, 25]: 5
- Sugarbeets plant response rating [12, 26]: 0
- Sugarbeets plant response rating [12, 27]: 0
- Plant response rating, Sugarbeets [12, 28]: 4
- Plant response rating, Velvetleaf [13, 22]: 0
- Plant response rating, Velvetleaf [13, 23]: 0
- Velvetleaf plant response rating [13, 24]: 4
- Plant response rating, Velvetleaf [13, 25]: 6
- Velvetleaf plant response rating [13, 26]: 0
- Velvetleaf plant response rating [13, 27]: 4
- Plant response rating, Velvetleaf [13, 28]: 7
- Plant response rating, Cocklebur [14, 22]: 0
- Plant response rating, Cocklebur [14, 23]: 0
- Cocklebur plant response rating [14, 24]: 0
- Plant response rating, Cocklebur [14, 25]: 0
- Cocklebur plant response rating [14, 26]: 0
- Cocklebur plant response rating [14, 27]: 0
- Cocklebur plant response rating (0 to 10 scale) ([14]; Preemergence, Rate 250 g/ha): 0
- Plant response rating, Cocklebur [14, 28]: 0
- Plant response rating, Wheat [15, 22]: 0
- Wheat plant response rating [15, 24]: 0
- Plant response rating, Wheat [15, 25]: 0
- Wheat plant response rating [15, 26]: 0
- Wheat plant response rating [15, 27]: 0
- Plant response rating, Wheat [15, 28]: 0
- Plant response rating, Ducksalad (0 to 10 scale, 0 is no effect, 10 is complete control) [16, 29]: 0
- Ducksalad plant response rating (0 to 10 scale, 0 is no effect, 10 is complete control) [16, 30]: 0
- Ducksalad plant response rating [16, 31]: 0
- Ducksalad plant response rating [16, 32]: 0
- Plant response rating, S. Flatsedge (0 to 10 scale, 0 is no effect, 10 is complete control) [17, 29]: 0
- S. Flatsedge plant response rating (0 to 10 scale, 0 is no effect, 10 is complete control) [17, 30]: 0
- S. Flatsedge plant response rating [17, 31]: 0
- S. Flatsedge plant response rating [17, 32]: 0
- Plant response rating, Rape [18, 22]: 1
- Plant response rating, Rape [18, 23]: 5
- Rape plant response rating [18, 24]: 5
- Plant response rating, Rape [18, 25]: 7
- Rape plant response rating [18, 26]: 1
- Rape plant response rating [18, 27]: 5
- Plant response rating, Rape [18, 28]: 7
- Plant response rating, Soybean [19, 22]: 3
- Plant response rating, Soybean [19, 23]: 4
- Soybean plant response rating [19, 24]: 4
- Soybean plant response rating [19, 26]: 0
- Soybean plant response rating [19, 27]: 0
- Plant response rating, Soybean [19, 28]: 4
